Measurements reported in US12304909B2, “Compounds and their use in therapy” (IMPERIAL COLLEGE INNOVATIONS LIMITED, priority 2018, dated 2025).

How the values were obtained:
Rat hepatocyte half life = type: in vitro ADME, Sprague-Dawley rats; conditions: pooled cryopreserved rat hepatocytes, pH 7.4; pooled male Sprague-Dawley rat hepatocytes; read-out: Rat Hepatocyte t ½
Procedure: (§1) Example Compound 1 was tested for metabolic stability in rat metabolic assays using hepatocytes derived from pooled male Sprague-Dawley rats. Comparative Examples 2, 3 and 4 were also tested in the same assay. Compounds having good metabolic stability in the assay are expected to be especially useful as agents for preventing and/or treating cancer, by having a long half-life in human patients.
Frozen pooled rat hepatocytes obtained from LifeTechnologies were thawed and purified according to the manufacturer's instructions. The test compound (4 mM) in DMSO was diluted with acetonitrile to provide a 100 μM sub-stock then further diluted with pH7.4 Krebs-Henseleit buffer supplemented with CaCl2), NaHCO3, HEPES, fructose and glycine) to provide a 2 μM working solution. 25 μL of working solution was incubated at 37° C., treated with 25 μL of rat hepatocyte suspension (containing 1×10^6 cells/mL) and incubated at 37° C. with 5% CO2 level at 95% relative humidity. Wells were incubated for an appropriate time (0, 15, 30, 45, 60 and 75 min) then quenched with 250 μL of acetonitrile containing reference standards diltiazem, 7-ethoxycoumarin and propranolol). The plates were shaken, sonicated for 5 min then cooled to 4° C. until all sampling was complete. All plates were centrifuged at 4000 rpm for 20 min to pellet the debris. 110 μl supernatant was diluted 110 μL water and quantitated using LC-MS/MS.
The results were used to calculate the % Remaining of the test compound at time point t=100×˜[(AUC at time point t)/(AUC at T=0)]. A linear regression curve was fitted to a plot of natural logarithm (In) of AUC against time. The T-half (min)=0.693/slope

Rat half life in vivo = conditions: plasma; rat oral half-life; male Sprague-Dawley rats, 3 mg/kg oral gavage; read-out: Rat or mouse t ½ (rat) (converted)
Procedure: Example Compound 1, and Comparative Examples 2 and 3 were tested for metabolic stability in male Sprague-Dawley rats. Comparative Example 5 was tested for metabolic stability in male CD-1 mice. Compounds having good metabolic stability in rats or mice are expected to be especially useful as agents for preventing and/or treating cancer, by having a long half-life in human patients.
Male Sprague-Dawley rats were fasted for 4 h before dosing. Groups of 3 rats were dosed with Example Compound 1, Comparative Example 2, or Comparative Example 3 • (i) intravenously at a dose of 1 mg/kg using a dose volume 2 mL/kg where the animals are anaesthetized using 3% v/v isoflurane:oxygen mixture and dose administered through lateral tail vein; or • (ii) orally by gavage (OG) at a dose of 3 mg/kg using a dose volume 5 ml/kg to conscious animals.
˜100 μL blood sample were collected after 5 min, 15 min, 30 min, 1 h, 2 h, 4 h, 8 h and 24 h (intravenous) and 15 min, 30 min, 1 h, 2 h, 4 h, 8 h and 24 h (oral) and transferred to heparinized capillary tubes, and subsequently into 0.5 mL microcentrifuge tubes. All blood samples are processed for plasma by centrifugation at 1640×g for 5 min at 4° C. within half an hour of collection. Plasma samples were stored at −20° C. until all samples were collected. All samples were mixed with ice-cold acetonitrile containing an internal standard (IS) in 1:4 v/v and centrifuged at 4000 rpm for 15 min at 15° C. Supernatant was then half diluted in water and loaded for LCMS/MS analysis. Analyte peak area/IS peak area (the ratio) was considered for further data analysis as described below.
Calibration curve and QC samples: Compound stock was prepared and further serial dilutions were carried out. The samples were spiked in blank plasma (1:50). Calibration curve ranged from 1 to 1250 ppb. Three quality control samples were also prepared-high QC (HQC), Mid QC (MQC and Low QC (LQC).

[1] = Human liver microsomes half life; type: in vitro ADME; conditions: pH 7.4, read-out: Human liver microsomes t ½
Procedure: as §1, with “an assay” for “rat metabolic assays”, “human liver microsomes.” for “hepatocytes derived from pooled male Sprague-Dawley rats.”, “3, 4, 5” for “3”, “6” for “4”, “patients” for “patients.”
Frozen human liver microsomes obtained from Corning, USA (cat #452117) were thawed and diluted with 100 mM of pH 7.4 phosphate buffer to give a 1 mg/ml solution. An NADPH regeneration system (NRS) was prepared as a solution containing 13 mM NADP, 33 mM glucose-6-phosphate, 33 mM MgCl2 and 4U/mL glucose-6-phosphate dehydrogenase in 100 mM of pH7.4 phosphate buffer. The test compound (4 mM) in DMSO was diluted with acetonitrile to provide a 100 μM sub-stock then further diluted with 100 mM of pH7.4 phosphate buffer to provide a 2 μM working solution. The liver microsome solution and NRS were incubated at 37° C. before use. To each well of the test plate was dispensed 60 μL of buffer, 50 μL of test compound solution and 10 μL of NRS. A reaction was initiated by addition of 40 μL of liver microsome solution. Wells were incubated for an appropriate time (0, 5, 10, 20, 30 and 60 min) then quenched with 300 μL of acetonitrile containing reference standards atenolol, propranolol, diclofenac, verapamil). All plates were centrifuged at 3500 rpm for 20 min at 15° C. to pellet the debris. 110 μL supernatant was diluted 110 μL water and quantitated using LC-MS/MS.
The results were used to calculate the % Remaining of the test compound at time point t=100×˜[(AUC at time point t)/(AUC at T=0)]. A linear regression curve was fitted to a plot of natural logarithm (In) of AUC against time. The T-half (min)=0.693/slope.

Structure (SMILES)	half-life at 1 µM (Rat hepatocyte half life)	half-life (Rat half life in vivo)	half-life at 0.625 µM [1]
CNC(=O)c1nn(C)c(C)c1CCOc1cc(F)ccc1-c1ccc2ncc(CCN)n2c1 [Comparative Example 2, 4-(2-{2-[3-(2-aminoethyl)imidazo[1,2-a]pyridin-6-yl]-5-fluorophenoxy}ethyl)-N,1,5-trimethyl-1H-pyrazole-3-carboxamide]	1.35 h	8.3 h	1.95 h
CNCCc1cnc2ccc(-c3ccc(F)cc3OCCc3c(C)nn(C)c3C)cn12 [Comparative Example 3, [2-(6-{4-fluoro-2-[2-(1,3,5-trimethyl-1H-pyrazol-4-yl)ethoxy]phenyl}imidazo[1,2-a]pyridin-3-yl)ethyl](methyl)amine]	0.767 h	4.5 h	0.617 h
Cc1c(CCOc2cc(Cl)ccc2-c2ccc3ncc(CCN)n3c2)c(C(=O)N(C)C)nn1C [Example Compound 1, 4-(2-{2-[3-(2-aminoethyl)imidazo[1,2-a]pyridin-6-yl]-5-chlorophenoxy}ethyl)-N,N,1,5-tetramethyl-1H-pyrazole-3-carboxamide]	1.33 h	7.1 h	1.12 h
